Laboratory results published in US20150231080A1, “PHARMACEUTICAL COMPOSITION COMPRISING AN ATYPICAL ANTIPSYCHOTIC AGENT AND METHOD FOR THE PREPARATION THEREOF” (PHARMATHEN S.A., priority 2012, published 2015).

Assays:
[1] = fumarate salt, crystalline powder; cited from earlier work
[2] = blends, accelerated storage conditions

compatibility with tartaric acid [2]: significant compatibility problems
SMILES: OCCOCCN1CCN(C2=Nc3ccccc3Sc3ccccc32)CC1 [Quetiapine, 11-[4-[2-(2-hydroxyethoxy)ethyl]-1-piperazinyl]dibenzo[b,f][1,4]thiazepine]
solubility in water [1]: moderately soluble in water
